# Assay results taken from US10947251B2, “Therapeutic compounds and methods of use thereof” (GENENTECH, INC., priority 2018, dated 2021).
# What was measured:
# hNav1.7 [1] = target: T1, hNav1.7 (Homo sapiens (Human), UniProt Q15858); test: Electrophysiological assay (EP), voltage clamp on Syncropatch 384PE; format: cell-based; details: CHO cells expressing Nav1.7, holding potential −50 mV, 7.5 min compound incubation; read-out: EP_SP hNav1.7 EVO IC50
# Excerpt: Example 39C. Electrophysiological Assay (EP) (In Vitro Assay)
# Patch voltage clamp electrophysiology allows for the direct measurement and quantification of block of voltage-gated sodium channels (NaV's), and allows the determination of the time- and voltage-dependence of block which has been interpreted as differential binding to the resting, open, and inactivated states of the sodium channel (Hille, B., Journal of General Physiology (1977), 69: 497-515).
# The following voltage clamp electrophysiology studies were performed on representative compounds using cells heterologously expressing Nav1.7 or Nav1.5 channels. cDNAs for Nav1.7 (NM_002977) and Nav1.5 (AC137587) were stably expressed in Chinese Hamstr Ovary (CHO) cells and CHL (Chinese Hamster Lung) cells respectively. Sodium currents were measured in the whole-cell configuration using Syncropatch 384PE (Nanlon Technologies, Germany). 1NPC®-384 chips with custom medium resistance and single hole mode are used. Internal solution consists of (in mM): 110 […], 10 CsCl, 20 EGTA, and 10 Hepes (pH adjusted to 7.2); and external solution contains (in mM): 60 NMDG, 80 NaCl, 4 KCl, 1 MgCl2, 2 CaCl2, 2 D-Glucose monohydrate, 10 Hepes (pH adjusted to 7.4 with NaOH).
# After system flushing, testing compounds are dissolved in external solution containing 0.1% Pluronic F-127. The chip is moved into the measuring head and the instrument primes the chip with external and internal solutions. 10 l cells are added to the chip from a cell hotel, and a negative pressure of −50 mBar is applied to form a seal. Following treatment with seal enhancer solution and wash-off with external solution, negative pressure of −250 mbar is applied for 1 second to achieve the whole-cell configuration, followed by three washing steps in external solution. 20 µl of compounds is added to 40 µl in each well (1:3 dilution of compounds), and after mixing, 20 l is removed so the volume is retained at 40 ul. After approximately 13 minutes recordings, 20 µl/well of 2 uM TTX, or 333 uM Tetracaine (for Nav1.5) is added to achieve full block.
# For voltage protocol, an holding potential of −50 mV is applied during the whole experiment. A depolarizing step is applied to −10 mV for 10 ms, followed by a hyperpolarization step to −150 mV for 20 ms to allow channel recovery from inactivation. A second depolarizing step is applied from −150 mV to −10 mV for 10 ms, where currents were measured to derive blocking effects of compounds. Inhibition is determined based on 7.5 min of compound incubation.
# hNav1.7 [2] = target: T1, hNav1.7; test: Tritiated compound binding to membranes from cells heterologously expressing hNav1.7 and the β1 subunit (LBA); details: competitive binding vs [3H]compound, membranes with hNav1.7 and β1 subunit; read-out: Nav1.7 LBA EVO IC50
# Description: Example 39A. Tritiated Compound Binding to Membranes Isolated from Cells that Heterologously Express hNav1.7 and the β1 Subunit
# Preparation of membranes containing recombinantly expressed sodium channels: Frozen recombinant cell pellets were thawed on ice and diluted to 4 times the cell pellet weight with ice cold 50 mM Tris HCl, pH 7.4 buffer. The cell suspensions were homogenized on ice using a motorized glass dounce homogeniser. Homogenates were further diluted 8.4 times with ice cold 50 mM Tris HCl, pH 7.4 buffer and then centrifuged at 200×g at 4° C. for 15 min. The supernatants were collected and centrifuged at 10000×g at 4° C. for 50 min. The pellets were then re-suspended in 100 mM NaCl, 20 mM Tris HCl, pH 7.4 buffer containing 1% v/v protease inhibitors (Calbiochem) and re-homogenized on ice. The homogenized membranes were then processed through a syringe equipped with a 26 gauge needle. Protein concentrations were determined by Bradford Assay and the membranes were stored at −80° C.
# Saturation experiments. A competitive NaV1.7 inhibitor having a methyl group was tritiated. Three tritiums were incorporated in place of methyl hydrogens to generate [^3H]compound. Binding of this radioligand was performed in 5 mL borosilicate glass test tubes at room temperature. Binding was initiated by adding membranes to increasing concentrations of [^3H]compound in 100 mM NaCl, 20 mM Tris HCl, pH 7.4 buffer containing 0.01% w/v bovine serum albumin (BSA) for 18 h. Non-specific binding was determined in the presence of 1 μM unlabeled compound. After 18 h, the reactants were filtered through GF/C glass fiber filters presoaked in 0.5% w/v polyethylene imine. Filters were washed with 15 mL ice cold 100 mM NaCl, 20 mM Tris HCl, pH7.4 buffer containing 0.25% BSA to separate bound from free ligand. [^3H]compound bound to filters was quantified by liquid scintillation counting.
# Binding reactions were performed in 96-well polypropylene plates at room temperature for 18 h. In 360 μL, membranes were incubated with 100 pM [^3H]compound and increasing concentrations of Test Compound. Non-specific binding was defined in the presence of 1 μM unlabeled compound. Reactions were transferred and filtered through 96-well glass fiber/C filter plates presoaked with 0.5% polyethylene imine. The filtered reactions were washed 5 times with 200 μL ice cold buffer containing 0.25% BSA. Bound radioactivity was determined by liquid scintillation counting.
# For saturation experiments, non-specific binding was subtracted from total binding to provide specific binding and these values were recalculated in terms of pmol ligand bound per mg protein. Saturation curves were constructed and dissociation constants were calculated using the single site ligand binding model: Beq=(Bmax*X)/(X+Kd), where Beq is the amount of ligand bound at equilibrium, Bmax is the maximum receptor density, Kd is the dissociation constant for the ligand, and X is the free ligand concentration. For competition studies percent inhibition was determined and IC50 values were calculated using a 4 parameter logistic model (% inhibition=(A+((B−A)/(1+((x/C)^D)))) using XLfit, where A and B are the maximal and minimum inhibition respectively, C is the IC50 concentration and D is the (Hill) slope.
# Example 39B. Tritiated Compound Binding to Membranes Isolated from Cells that Heterologous Express hNav1.7 and the β1 Subunit
# Following the procedure described in Example 39A, and making modifications as required to: centrifuge supernatants at 100000×g instead of 10000×g; re-suspend pellets in a buffer containing 0.01% BSA in addition to 100 mM NaCl, 20 mM Tris HCl, pH 7.4 buffer, and 1% v/v […]; and storing membranes at −80° C. in single use aliquots instead of pooled.
# Saturation experiments: Following the procedure described in Example 243A, and making modifications as required to incubate [3H]compound for 3 hours instead of 18 hours. […]
smiles,measurement,setting,value
"COc1cc(-c2cccc(C(F)(F)F)c2F)c(F)cc1N1C(=O)CO[C@H]2CN(S(=O)(=O)Nc3ccon3)CC[C@@H]21 [Example 12, (4aS,8aS)-1-(2,2′-difluoro-5-methoxy-3′-(trifluoromethyl)-[1,1′-biphenyl]-4-yl)-N-(isoxazol-3-yl)-2-oxohexahydro-1H-pyrido[3,4-b][1,4]oxazine-6(7H)-sulfonamide]",IC50,hNav1.7 [1],0.00683 µM
same,IC50,hNav1.7 [2],0.131 µM
"COc1cc(-c2cccc(Cl)c2)c(F)cc1N1C(=O)CO[C@@H]2CN(S(=O)(=O)Nc3ccon3)CC[C@H]21 [Example 13, (4aR,8aR)-1-(3′-chloro-2-fluoro-5-methoxy-[1,1′-biphenyl]-4-yl)-N-(isoxazol-3-yl)-2-oxohexahydro-1H-pyrido[3,4-b][1,4]oxazine-6(7H)-sulfonamide]",IC50,hNav1.7 [1],0.0117 µM
same,IC50,hNav1.7 [2],0.471 µM
"COc1cc(-c2cccc(Cl)c2)c(F)cc1N1C(=O)CO[C@H]2CN(S(=O)(=O)Nc3ccon3)CC[C@@H]21 [Example 14, (4aS,8aS)-1-(3′-chloro-2-fluoro-5-methoxy-[1,1′-biphenyl]-4-yl)-N-(isoxazol-3-yl)-2-oxohexahydro-1H-pyrido[3,4-b][1,4]oxazine-6(7H)-sulfonamide]",IC50,hNav1.7 [1],0.00721 µM
same,IC50,hNav1.7 [2],0.332 µM
"COc1cc(-c2cccc(C(F)F)c2)c(F)cc1N1C(=O)CO[C@@H]2CN(S(=O)(=O)Nc3ccon3)CC[C@H]21 [Example 15, (4aR,8aR)-1-(3′-(difluoromethyl)-2-fluoro-5-methoxy-[1,1′-biphenyl]-4-yl)-N-(isoxazol-3-yl)-2-oxohexahydro-1H-pyrido[3,4-b][1,4]oxazine-6(7H)-sulfonamide]",IC50,hNav1.7 [1],0.0467 µM
same,IC50,hNav1.7 [2],2 µM
"COc1cc(-c2cccc(C(F)F)c2)c(F)cc1N1C(=O)CO[C@H]2CN(S(=O)(=O)Nc3ccon3)CC[C@@H]21 [Example 16, (4aS,8aS)-1-(3′-(difluoromethyl)-2-fluoro-5-methoxy-[1,1′-biphenyl]-4-yl)-N-(isoxazol-3-yl)-2-oxohexahydro-1H-pyrido[3,4-b][1,4]oxazine-6(7H)-sulfonamide]",IC50,hNav1.7 [1],0.0495 µM
same,IC50,hNav1.7 [2],1.39 µM
"COc1cc(-c2cccc(C(F)(F)F)c2)ccc1N1C(=O)CO[C@@H]2CN(S(=O)(=O)Nc3ccon3)CC[C@H]21 [Example 17, (4aR,8aR)-N-(isoxazol-3-yl)-1-(3-methoxy-3′-(trifluoromethyl)-[1,1′-biphenyl]-4-yl)-2-oxohexahydro-1H-pyrido[3,4-b][1,4]oxazine-6(7H)-sulfonamide]",IC50,hNav1.7 [1],0.00603 µM
same,IC50,hNav1.7 [2],0.214 µM
"COc1cc(-c2cccc(C(F)(F)F)c2)ccc1N1C(=O)CO[C@H]2CN(S(=O)(=O)Nc3ccon3)CC[C@@H]21 [Example 18, (4aS,8aS)-N-(isoxazol-3-yl)-1-(3-methoxy-3′-(trifluoromethyl)-[1,1′-biphenyl]-4-yl)-2-oxohexahydro-1H-pyrido[3,4-b][1,4]oxazine-6(7H)-sulfonamide]",IC50,hNav1.7 [1],0.00586 µM
same,IC50,hNav1.7 [2],0.346 µM
"COc1cc(-c2cccc(C(F)(F)F)c2)cc(F)c1N1C(=O)CO[C@@H]2CN(S(=O)(=O)Nc3ccon3)CC[C@H]21 [Example 19, (4aR,8aR)-1-(3-fluoro-5-methoxy-3′-(trifluoromethyl)-[1,1′-biphenyl]-4-yl)-N-(isoxazol-3-yl)-2-oxohexahydro-1H-pyrido[3,4-b][1,4]oxazine-6(7H)-sulfonamide]",IC50,hNav1.7 [1],0.05 µM
same,IC50,hNav1.7 [2],0.831 µM
"COc1cc(-c2cccc(C(F)(F)F)c2)cc(F)c1N1C(=O)CO[C@H]2CN(S(=O)(=O)Nc3ccon3)CC[C@@H]21 [Example 20, (4aS,8aS)-1-(3-fluoro-5-methoxy-3′-(trifluoromethyl)-[1,1′-biphenyl]-4-yl)-N-(isoxazol-3-yl)-2-oxohexahydro-1H-pyrido[3,4-b][1,4]oxazine-6(7H)-sulfonamidede]",IC50,hNav1.7 [1],0.0398 µM
same,IC50,hNav1.7 [2],2 µM
